In patent US8669233B2, “Combination of compounds for treating or preventing skin diseases” (Galderma Research & Development, priority 2009, dated 2014):

Tests used:
[1] = system: TPA-induced mouse ear edema; test: TPA-induced mouse ear edema test, single topical application; format: in vivo, Balb/c mice; conditions: TPA 0.01%, T+6 h; for reduction in the ear edema (TPA): single topical application
Procedure: The test compounds are diluted in the TPA solution. […] Brimonidine is added at the concentration of 0.2%. […] FIG. 2 represents the average measurement of the ear edema thickness as a function of the dose of test compound as %, i.e. the average measurement of the ear thickness after treatment, from which is subtracted the average measurement of the thickness of the ear obtained with the control (nontreated) group, […]

[2] = system: arachidonic acid-induced mouse ear edema; test: Arachidonic acid-induced mouse ear edema test, single topical application; format: in vivo, Balb/c mice; conditions: 4% arachidonic acid
Procedure: Evaluation of the Anti-Inflammatory Activity of Ivermectin and of Brimonidine after a Single Topical Application in the Arachidonic Acid-Induced Mouse Ear Edema Test on Balb/c Mice
Arachidonic acid is dissolved in a mixture of THF/methanol at 4%.
Ivermectin is dissolved in the solution of arachidonic acid (AA) and tested at the concentration of 1%.
20 μl of the solution are applied to the internal surface of the right ear.
The thickness of the ear is measured at T+1 h, T+2 h and T+4 h.
FIG. 1 represents the average measurement of the thickness of the ear edema, i.e. the average measurement of the thickness of the ear after treatment, from which is subtracted the average measurement of the thickness of the ear obtained with the control (nontreated) group, this being after treatment with 4% arachidonic acid ( ? ), 1% ivermectin (□), 0.2% brimonidine ( ? ), and the combination of ivermectin and brimonidine ( ? ).

Brc1c(NC2=NCCN2)ccc2nccnc12 [brimonidine]
reduction of the mouse ear edema (TPA) ([1]; brimonidine alone 0.2%): 50%

Ivermectin
reduction of the ear edema caused by arachidonic acid ([2]; ivermectin alone 1%, single topical application): 56% | reduction in the ear edema (TPA) ([1]; ivermectin 0.3%): 57% | reduction in the ear edema (TPA) ([1]; ivermectin 1%): 90%

COc1ccc2c(c1)c(CC(=O)O)c(C)n2C(=O)c1ccc(Cl)cc1 [Indomethacin]
inhibition of the ear edema caused by arachidonic acid ([2]; indomethacin at 5%, topical, Balb/c mice): 95%

CCCCC(=O)O[C@]1(C(=O)CO)[C@@H](C)C[C@H]2[C@@H]3CCC4=CC(=O)C=C[C@]4(C)[C@@]3(F)[C@@H](O)C[C@@]21C [β-methasone valerate (BMV), β-methasone valerate]
inhibition of the mouse ear edema (TPA) ([1]; BMV at 0.01%): 89%
